In patent publication US9770434B2, “Compositions for improved body composition” (Northern Innovations Holding Corp, priority 2014, dated 2017):
Entries after “also recorded” stand apart in the source; their conditions may differ.

How the values were obtained:
Assay type in all cases: in vivo, C57BL6/J male mice
[1] = Food intake of high fat diet mice; conditions: HFD mice; monitored every two days; compared to HFD mice
Text: (§1) 5 week old C57BL6/J male mice were divided into 2 groups as follows: normal diet (ND) (10% kcal/fat) or high fat diet (HFD) (60% kcal/fat) each containing the same total calories. At 12 weeks of age, the HFD group was further divided into 4 groups as follows: HFD alone, HFD supplemented with alpha-lipoic acid (HFD+ALA), HFD supplemented with curcumin (HFD+CUR), or HFD supplemented with alpha-lipoic acid plus curcumin (HFD+ALA+CUR). Based on the average food intake, the daily dose for alpha-lipoic acid in the HFD+ALA group was about 174 mg/kg, the daily dose for curcumin in the HFD+CUR group was about 65 mg/kg, and the daily dose for each component in the HFD+ALA+CUR group was similar to that in the respective groups. Each of the 5 groups contained 8-10 mice. Body weight of the mice was recorded weekly and food intake was monitored every two days. After 10 weeks of treatment mice from each group were subjected to dual-energy X-ray absorptiometry (DEXA) scan; percent (%) body fat, fat mass, and lean mass were calculated.

[2] = DEXA scan of high fat diet mice (body fat %, fat mass, lean mass); conditions: HFD mice; after 10 weeks of treatment
Text: as §1

[3] = Body weight of high fat diet mice during treatment; conditions: HFD mice, ALA about 174 mg/kg daily, curcumin about 65 mg/kg daily; for body weight during the course of the experiment (FIG. 1): supplement in diet, recorded weekly
Text: as §1

SMILES | food intake (grams) per day per gram body weight (FIG. 4) [1] | food intake (kcals) per day per gram body weight (FIG. 5) [1] | DEXA body fat % (FIG. 6) [2] | DEXA fat mass (FIG. 7) [2] | DEXA lean mass (FIG. 8) [2] | body weight / weight gain after 11 weeks of treatment (FIG. 3) [3] | body weight during the course of the experiment (FIG. 1) [3]
O=C(O)CCCCC1CCSS1 (racemic) [alpha-lipoic acid, 6,8-dithio octanoic acid] | reduced food intake | reduced calorie intake | failed to reduce body fat % | attenuated increase in fat mass compared to the HFD group | significant attenuation in lean mass accrual | attenuated weight gain; also recorded: efficacy at attenuating weight gain | weight gain less than the HFD mice
COc1cc(/C=C/C(=O)CC(=O)/C=C/c2ccc(O)c(OC)c2)ccc1O [curcumin] |  |  | reduced the increased body fat % from a high fat diet |  | unaltered | attenuated weight gain; also recorded: efficacy at attenuating weight gain | weight gain less than the HFD mice
